Test results as given in ChEMBL document CHEMBL5726787, “Compounds, compositions and methods” (2018).

Molecular target: T1, Receptor-interacting serine/threonine-protein kinase 1 (Homo sapiens, UniProt Q13546)
T1 sequence (Q13546 whole entry): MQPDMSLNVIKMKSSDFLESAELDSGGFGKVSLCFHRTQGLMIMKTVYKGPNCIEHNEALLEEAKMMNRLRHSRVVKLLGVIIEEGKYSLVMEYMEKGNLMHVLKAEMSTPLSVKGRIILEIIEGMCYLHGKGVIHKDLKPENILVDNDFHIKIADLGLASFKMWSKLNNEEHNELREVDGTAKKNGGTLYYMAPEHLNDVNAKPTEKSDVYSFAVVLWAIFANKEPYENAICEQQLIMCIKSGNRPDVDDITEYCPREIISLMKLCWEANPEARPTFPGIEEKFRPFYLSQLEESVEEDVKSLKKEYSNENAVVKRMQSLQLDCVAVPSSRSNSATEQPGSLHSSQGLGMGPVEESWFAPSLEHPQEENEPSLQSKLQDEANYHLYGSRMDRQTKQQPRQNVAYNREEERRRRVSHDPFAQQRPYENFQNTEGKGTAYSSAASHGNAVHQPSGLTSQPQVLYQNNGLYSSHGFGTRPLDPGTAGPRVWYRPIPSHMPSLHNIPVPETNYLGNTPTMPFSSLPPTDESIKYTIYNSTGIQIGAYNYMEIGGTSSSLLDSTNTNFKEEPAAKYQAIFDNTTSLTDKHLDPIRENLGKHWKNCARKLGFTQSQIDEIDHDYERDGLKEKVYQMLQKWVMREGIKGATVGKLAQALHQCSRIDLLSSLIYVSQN
Experiment: […]: Test compounds were diluted in DMSO and 0.1 μL of solution was dispensed to each well of a 384-well white solid microplate. The assay buffer was 50 mM HEPES pH 7.5, 50 mM NaCl, 30 mM MgCl2. The buffer was supplemented with 0.02% CHAPS, 0.01% of Pluronic F127, 0.1 mg/mL BSA and 1 mM DTT. MnCl2, 5 mM, was included in the assay buffer on the day of the experiment. […] 5 μL of enzyme and 5 μL of ATP were added to the plate at twice the final assay concentration and incubated at room temperature for 3 hours. Following this reaction, 10 μL of ADP-Glo reagent (Promega) was added to each well and incubated for 40 min at room temperature. This stops the kinase reaction and depletes any remaining ATP. 20 μL of ADP-Glo detection reagent was then added to each well and incubated at room temperature for at least 15 minutes. The detection reagent converts ADP to ATP and introduces luciferase and luciferin to detect ATP. The luminescence is then measured with the Envision (PerkinElmer) plate reader. Test compound inhibition was expressed as percent inhibition of internal assay controls. For concentration response curves, normalized data is fit and IC50 determined using XL-fit (IDBS) for Excel. The IC50 were averaged to determine a mean value, for a minimum of two independent experiments.

Structure (SMILES) | IC50
CN1C(=O)C(NC(=O)c2nnc(Cc3ccccc3)[nH]2)C[C@@H](F)c2ccccc21 (some centres not stated) | 0.1 to 1000 nM
CN1C(=O)C(NC(=O)c2nnc(Cc3ccccc3)[nH]2)C[C@H](F)c2ccccc21 (some centres not stated) | 0.1 to 1000 nM
